The values below come from patent US11981658B2, “Substituted aminopyridine compounds as EGFR inhibitors” (YUHAN CORPORATION, priority 2021, dated 2024).

One assay deals with EGFR L858R/C797S (Homo sapiens, UniProt P00533, C797S/L858R). As to the kind of experiment: Biochemical EGFR kinase inhibition assay (Lance Ultra TR-FRET), double mutant L858R/C797S. Put shortly:
(§1)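 In this biochemical assay, phosphorylation after a one-hour room-temperature reaction was detected with europium-labelled anti-phosphopeptide antibody at 2 nM final concentration.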

The target of the next assay is EGFR wildtype (WT) (Homo sapiens, UniProt P00533). Nature of the assay: Biochemical EGFR kinase inhibition assay (Lance Ultra TR-FRET), wildtype. Put shortly: as §1
EGFR wildtype (WT), sequence (P00533 25-1210): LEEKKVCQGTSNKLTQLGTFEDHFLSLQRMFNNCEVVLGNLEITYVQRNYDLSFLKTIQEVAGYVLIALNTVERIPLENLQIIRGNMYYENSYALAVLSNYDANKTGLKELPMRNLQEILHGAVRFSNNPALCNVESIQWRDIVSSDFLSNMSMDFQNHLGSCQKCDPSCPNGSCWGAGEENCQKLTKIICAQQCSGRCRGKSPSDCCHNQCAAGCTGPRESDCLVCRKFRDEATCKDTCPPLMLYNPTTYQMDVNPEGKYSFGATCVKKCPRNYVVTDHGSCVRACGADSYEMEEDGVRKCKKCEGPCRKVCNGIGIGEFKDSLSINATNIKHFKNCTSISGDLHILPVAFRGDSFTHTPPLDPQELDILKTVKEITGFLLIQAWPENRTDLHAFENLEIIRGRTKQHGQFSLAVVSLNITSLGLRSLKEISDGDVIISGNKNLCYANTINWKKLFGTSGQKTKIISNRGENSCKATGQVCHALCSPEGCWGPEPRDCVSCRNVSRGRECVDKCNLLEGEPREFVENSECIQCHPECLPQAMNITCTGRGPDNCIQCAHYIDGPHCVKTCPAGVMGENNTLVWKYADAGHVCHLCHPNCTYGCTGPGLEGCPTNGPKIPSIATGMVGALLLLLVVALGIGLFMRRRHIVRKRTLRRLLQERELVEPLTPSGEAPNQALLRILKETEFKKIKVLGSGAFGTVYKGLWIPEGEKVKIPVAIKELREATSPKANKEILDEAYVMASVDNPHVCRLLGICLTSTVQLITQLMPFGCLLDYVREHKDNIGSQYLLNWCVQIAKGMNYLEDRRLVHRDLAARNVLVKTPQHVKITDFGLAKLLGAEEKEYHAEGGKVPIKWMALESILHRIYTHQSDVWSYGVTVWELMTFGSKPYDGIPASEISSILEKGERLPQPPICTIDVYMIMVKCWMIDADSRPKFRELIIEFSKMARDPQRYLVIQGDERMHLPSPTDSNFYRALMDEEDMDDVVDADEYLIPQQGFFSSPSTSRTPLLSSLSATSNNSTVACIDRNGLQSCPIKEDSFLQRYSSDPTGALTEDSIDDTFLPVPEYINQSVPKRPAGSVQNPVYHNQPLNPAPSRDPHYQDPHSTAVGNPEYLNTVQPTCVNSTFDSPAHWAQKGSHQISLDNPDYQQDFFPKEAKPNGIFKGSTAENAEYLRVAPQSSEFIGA
(In general: Time-resolved FRET reads energy transfer from a long-lived donor to a nearby acceptor.)

In a further assay the target is EGFR Del19/T790M/C797S (Homo sapiens, UniProt P00533, C797S/DEL746-750/T790M). Nature of the assay: Biochemical EGFR kinase inhibition assay (Lance Ultra TR-FRET), triple mutant del19/T790M/C797S. The method, boiled down: as §1
EGFR Del19/T790M/C797S, sequence (P00533 with tags, fused parts or gaps DEL746-750/T790M/C797S): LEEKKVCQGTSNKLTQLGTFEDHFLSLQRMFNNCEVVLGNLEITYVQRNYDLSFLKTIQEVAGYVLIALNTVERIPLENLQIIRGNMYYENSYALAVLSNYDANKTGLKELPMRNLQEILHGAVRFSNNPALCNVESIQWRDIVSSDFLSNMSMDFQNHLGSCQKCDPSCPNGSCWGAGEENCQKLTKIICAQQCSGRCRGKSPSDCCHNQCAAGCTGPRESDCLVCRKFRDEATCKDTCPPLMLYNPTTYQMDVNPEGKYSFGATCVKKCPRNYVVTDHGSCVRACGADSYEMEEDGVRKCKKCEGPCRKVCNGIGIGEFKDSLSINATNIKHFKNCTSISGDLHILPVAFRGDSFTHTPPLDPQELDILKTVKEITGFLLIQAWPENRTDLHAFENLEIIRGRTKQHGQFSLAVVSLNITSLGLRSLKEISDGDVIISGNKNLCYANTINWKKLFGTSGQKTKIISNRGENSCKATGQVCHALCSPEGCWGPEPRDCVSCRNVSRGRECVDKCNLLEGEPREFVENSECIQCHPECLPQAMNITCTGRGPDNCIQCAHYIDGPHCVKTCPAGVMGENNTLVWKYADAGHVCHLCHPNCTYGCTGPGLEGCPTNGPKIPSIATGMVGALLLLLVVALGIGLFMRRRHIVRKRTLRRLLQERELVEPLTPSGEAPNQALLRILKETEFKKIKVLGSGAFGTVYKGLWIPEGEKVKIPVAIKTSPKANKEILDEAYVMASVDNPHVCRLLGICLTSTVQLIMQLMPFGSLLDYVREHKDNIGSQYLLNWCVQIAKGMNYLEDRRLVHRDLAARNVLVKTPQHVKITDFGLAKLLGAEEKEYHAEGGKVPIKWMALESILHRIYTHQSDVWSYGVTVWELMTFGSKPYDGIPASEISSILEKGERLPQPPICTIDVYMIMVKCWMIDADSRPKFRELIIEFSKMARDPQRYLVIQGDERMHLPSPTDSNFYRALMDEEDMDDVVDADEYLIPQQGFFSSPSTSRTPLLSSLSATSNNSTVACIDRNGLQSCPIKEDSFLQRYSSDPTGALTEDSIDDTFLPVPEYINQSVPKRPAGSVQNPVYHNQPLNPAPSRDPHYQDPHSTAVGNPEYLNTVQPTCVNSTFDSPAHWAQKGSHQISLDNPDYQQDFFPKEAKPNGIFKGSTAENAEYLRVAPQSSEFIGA
The next assay has as its target EGFR Del19/C797S (Homo sapiens, UniProt P00533, C797S/DEL746-750). As to the kind of experiment: Biochemical EGFR kinase inhibition assay (Lance Ultra TR-FRET), double mutant del19/C797S. Put shortly:
as §1

The next assay concerns the target EGFR L858R/T790M/C797S (Homo sapiens, UniProt P00533, C797S/L858R/T790M). Nature of the assay: Biochemical EGFR kinase inhibition assay (Lance Ultra TR-FRET), triple mutant L858R/T790M/C797S. The method, boiled down: as §1
Where [1] appears, read: Km ATP, read-out: IC50 L858R/C797S (nM) Km ATP.
Where [2] appears, read: Km ATP, read-out: IC50 WT (nM) Km ATP.
The mark [3] stands for this setting: Km ATP, read-out: IC50 Del19/T790M/C797S (nM) Km ATP.
Setting [4] is: Km ATP, read-out: IC50 Del19/C797S (nM) Km ATP.
[5] abbreviates: Km ATP, read-out: IC50 L858R/T790M/C797S (nM) Km ATP.
[6] abbreviates: IC50 L858R/C797S (nM), 100 μM ATP.
Setting [7] is: IC50 Del19/T790M/C797S (nM), 100 μM ATP.
The mark [8] stands for this setting: IC50 Del19/C797S (nM), 100 μM ATP.
The mark [9] stands for this setting: IC50 L858R/T790M/C797S (nM), 100 μM ATP.

Like-named read-outs stand apart in the source and are kept apart here.

EGFR L858R/C797S, sequence (P00533 25-1210 C797S/L858R): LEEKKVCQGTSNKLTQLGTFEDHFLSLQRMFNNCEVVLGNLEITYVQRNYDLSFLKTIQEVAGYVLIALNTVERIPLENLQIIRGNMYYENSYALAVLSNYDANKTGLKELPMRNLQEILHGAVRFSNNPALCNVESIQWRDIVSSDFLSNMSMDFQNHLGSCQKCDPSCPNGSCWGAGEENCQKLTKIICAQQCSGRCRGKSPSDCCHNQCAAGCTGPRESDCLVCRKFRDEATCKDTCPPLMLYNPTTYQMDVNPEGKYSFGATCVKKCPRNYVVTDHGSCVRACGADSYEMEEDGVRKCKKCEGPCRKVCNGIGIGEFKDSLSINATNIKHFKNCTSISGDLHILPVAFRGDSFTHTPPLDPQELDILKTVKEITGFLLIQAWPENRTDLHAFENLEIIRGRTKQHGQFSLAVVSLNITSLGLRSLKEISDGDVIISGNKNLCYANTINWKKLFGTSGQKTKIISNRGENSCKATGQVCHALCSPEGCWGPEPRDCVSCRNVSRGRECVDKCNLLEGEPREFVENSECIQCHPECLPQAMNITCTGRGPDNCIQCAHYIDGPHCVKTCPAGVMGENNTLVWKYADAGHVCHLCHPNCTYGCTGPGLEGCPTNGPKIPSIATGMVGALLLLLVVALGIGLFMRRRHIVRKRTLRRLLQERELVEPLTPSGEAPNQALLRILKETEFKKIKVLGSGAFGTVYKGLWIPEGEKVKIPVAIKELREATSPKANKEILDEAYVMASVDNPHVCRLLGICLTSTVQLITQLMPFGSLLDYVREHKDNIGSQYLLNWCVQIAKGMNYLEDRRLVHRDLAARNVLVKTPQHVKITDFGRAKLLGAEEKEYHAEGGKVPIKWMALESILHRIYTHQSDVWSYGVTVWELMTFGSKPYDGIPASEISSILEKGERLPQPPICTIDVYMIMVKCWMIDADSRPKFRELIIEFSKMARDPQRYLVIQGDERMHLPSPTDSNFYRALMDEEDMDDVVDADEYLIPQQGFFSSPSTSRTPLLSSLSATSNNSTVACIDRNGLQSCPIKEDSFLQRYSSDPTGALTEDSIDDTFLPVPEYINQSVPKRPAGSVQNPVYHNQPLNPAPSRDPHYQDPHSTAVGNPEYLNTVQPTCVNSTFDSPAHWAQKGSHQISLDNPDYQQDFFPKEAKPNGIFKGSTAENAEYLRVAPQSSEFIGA
EGFR Del19/C797S, sequence (P00533 with tags, fused parts or gaps DEL746-750/C797S): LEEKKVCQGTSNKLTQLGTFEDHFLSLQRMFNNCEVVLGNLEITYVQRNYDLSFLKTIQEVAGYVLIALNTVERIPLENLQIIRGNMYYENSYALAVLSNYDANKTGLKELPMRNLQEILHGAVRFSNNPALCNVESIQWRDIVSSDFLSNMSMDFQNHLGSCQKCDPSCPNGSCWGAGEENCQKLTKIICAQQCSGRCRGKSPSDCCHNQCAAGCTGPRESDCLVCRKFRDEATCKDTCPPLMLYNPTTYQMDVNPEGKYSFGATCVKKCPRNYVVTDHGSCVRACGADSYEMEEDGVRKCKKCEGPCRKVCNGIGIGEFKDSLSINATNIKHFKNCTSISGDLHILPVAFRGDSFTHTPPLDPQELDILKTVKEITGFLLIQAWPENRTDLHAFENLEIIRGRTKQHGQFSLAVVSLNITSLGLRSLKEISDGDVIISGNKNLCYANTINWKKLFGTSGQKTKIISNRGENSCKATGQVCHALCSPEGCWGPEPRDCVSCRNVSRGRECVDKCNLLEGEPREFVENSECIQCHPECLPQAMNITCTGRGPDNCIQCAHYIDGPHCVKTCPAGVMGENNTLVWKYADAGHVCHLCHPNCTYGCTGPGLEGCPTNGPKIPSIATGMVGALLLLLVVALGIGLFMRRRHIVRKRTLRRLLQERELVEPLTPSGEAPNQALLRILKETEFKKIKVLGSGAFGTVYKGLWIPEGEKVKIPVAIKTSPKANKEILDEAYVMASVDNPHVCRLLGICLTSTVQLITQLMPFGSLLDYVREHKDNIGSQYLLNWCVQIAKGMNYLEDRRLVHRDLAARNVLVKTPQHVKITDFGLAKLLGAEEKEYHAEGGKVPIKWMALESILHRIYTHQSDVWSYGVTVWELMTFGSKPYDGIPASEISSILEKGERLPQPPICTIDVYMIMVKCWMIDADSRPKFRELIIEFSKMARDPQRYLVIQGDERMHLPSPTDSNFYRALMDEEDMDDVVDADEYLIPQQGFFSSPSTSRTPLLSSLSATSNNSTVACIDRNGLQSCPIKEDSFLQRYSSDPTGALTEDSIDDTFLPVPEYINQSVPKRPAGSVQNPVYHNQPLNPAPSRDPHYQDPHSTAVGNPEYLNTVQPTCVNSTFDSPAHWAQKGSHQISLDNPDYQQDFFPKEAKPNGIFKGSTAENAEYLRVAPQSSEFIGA

Consider `CC(C)Nc1cc(Nc2ccnc(-c3cnn(S(=O)(=O)C4CC4)c3)n2)ncc1C#Cc1cnn(CC(F)F)c1` [Example 23, N^2-(2-(1-(Cyclopropylsulfonyl)-1H-pyrazol-4-yl)pyrimidin-4-yl)-5-((1-(2,2-difluoroethyl)-1H-pyrazol-4-yl)ethynyl)-N^4-isopropylpyridine-2,4-diamine], for which the IC50 on EGFR L858R/C797S (setting [1]) turned out to be 92.5 nM; on EGFR wildtype (WT) (setting [2]) it was 907 nM; on EGFR Del19/T790M/C797S (setting [3]), 1.6 nM; at EGFR Del19/C797S (setting [4]), 77.7 nM; on EGFR L858R/T790M/C797S (setting [5]), 7.1 nM.

As to `O=S(=O)(C1CC1)n1cc(-c2nccc(Nc3cc(N[C@H]4CCC[C@H](O)C4)c(C#Cc4ccsc4)cn3)n2)cn1` [Example 225, (1 S,3S)-3-((2-((2-(1-(Cyclopropylsulfonyl)-1H-pyrazol-4-yl)pyrimidin-4-yl)amino)-5-(thiophen-3-ylethynyl)pyridin-4-yl)amino)cyclohexan-1-ol], the IC50 at EGFR L858R/C797S (setting [6]) is 310 nM; against EGFR wildtype (WT) (IC50 WT (nM), 100 μM ATP), greater than 10000 nM; at EGFR Del19/T790M/C797S (setting [7]) it was 6.4 nM; at EGFR Del19/C797S (setting [8]), 87.8 nM; against EGFR L858R/T790M/C797S (setting [9]), 12.3 nM.

As to `O=S(=O)(C1CC1)n1cc(-c2nccc(Nc3cc(N4CCC(NCCF)CC4)c(C#Cc4cnn(C5CCOCC5)c4)cn3)n2)cn1` [Example 136, 2-(1-(Cyclopropylsulfonyl)-1H-pyrazol-4-yl)-N-(4-(4-((2-fluoroethyl)amino)piperidin-1-yl)-5-((1-(tetrahydro-2H-pyran-4-yl)-1H-pyrazol-4-yl)ethynyl)pyridin-2-yl)pyrimidin-4-amine], the IC50 on EGFR L858R/C797S (setting [6]) was 30.5 nM; on EGFR L858R/C797S (setting [1]), 2.7 nM; against EGFR wildtype (WT) (IC50 WT (nM), 100 μM ATP), greater than 10000 nM; at EGFR wildtype (WT) (setting [2]), 60.2 nM; against EGFR Del19/T790M/C797S (setting [7]), 0.3 nM; on EGFR Del19/T790M/C797S (setting [3]) it was 0.3 nM. Besides, the IC50 at EGFR Del19/C797S (setting [8]) is 4.9 nM; at EGFR Del19/C797S (setting [4]), 3.3 nM; on EGFR L858R/T790M/C797S (setting [9]), 1.2 nM; at EGFR L858R/T790M/C797S (setting [5]), 0.3 nM.

As for `O=S(=O)(C1CC1)n1cc(-c2nccc(Nc3cc(N[C@H]4CC[C@@H](O)CC4)c(C#CC4C[C@@H]5CC[C@@H]4O5)cn3)n2)cn1` (stereo partly drawn) [Example 427, (1s,4s)-4-((5-((7-Oxabicyclo[2.2.1]heptan-2-yl)ethynyl)-2-((2-(1-(cyclopropylsulfonyl)-1H-pyrazol-4-yl)pyrimidin-4-yl)amino)pyridin-4-yl)amino)cyclohexan-1-ol], the IC50 against EGFR L858R/C797S (setting [6]) was 80.1 nM; on EGFR L858R/C797S (Km ATP, read-out: IC50 L858R/C797S (nM), Km ATP), 3.2 nM; on EGFR wildtype (WT) (IC50 WT (nM), 100 μM ATP), greater than 10000 nM; at EGFR wildtype (WT) (Km ATP, read-out: IC50 WT (nM), Km ATP), 12 nM; on EGFR Del19/T790M/C797S (setting [7]) it was 0.2 nM; at EGFR Del19/T790M/C797S (Km ATP, read-out: IC50 Del19/T790M/C797S (nM), Km ATP), 0.3 nM. The IC50 came out at 2.4 nM on EGFR Del19/C797S (setting [8]); 2.7 nM on EGFR Del19/C797S (Km ATP, read-out: IC50 Del19/C797S (nM), Km ATP); 0.3 nM at EGFR L858R/T790M/C797S (setting [9]); 0.2 nM at EGFR L858R/T790M/C797S (Km ATP, read-out: IC50 L858R/T790M/C797S (nM), Km ATP).

`O=S(=O)(C1CC1)n1cc(-c2nccc(Nc3cc(N[C@H]4CC[C@@H](O)CC4)c(C#CC4(O)CCOCC4)cn3)n2)cn1` [Example 196, 4-((6-((2-(1-(Cyclopropylsulfonyl)-1H-pyrazol-4-yl)pyrimidin-4-yl)amino)-4-(((1 s, 4s)-4-hydroxycyclohexyl)amino)pyridin-3-yl)ethynyl)tetrahydro-2H-pyran-4-ol]: the IC50 at EGFR L858R/C797S (ATP at Km, read-out: IC50 L858R/C797S (nM), Km ATP) is 6.8 nM; against EGFR L858R/C797S (setting [6]), 50.6 nM; on EGFR wildtype (WT) (ATP at Km, read-out: IC50 WT (nM), Km ATP), 68 nM; against EGFR wildtype (WT) (IC50 WT (nM), 100 μM ATP), greater than 10000 nM; at EGFR Del19/T790M/C797S (ATP at Km, read-out: IC50 Del19/T790M/C797S (nM), Km ATP) it was 0.7 nM; against EGFR Del19/T790M/C797S (setting [7]), 0.6 nM. Moreover, the IC50 on EGFR Del19/C797S (ATP at Km, read-out: IC50 Del19/C797S (nM), Km ATP) is 6 nM; against EGFR Del19/C797S (setting [8]) it was 9.8 nM; at EGFR L858R/T790M/C797S (ATP at Km, read-out: IC50 L858R/T790M/C797S (nM), Km ATP), 0.3 nM; against EGFR L858R/T790M/C797S (setting [9]) it was 1.1 nM.

Take `O=S(=O)(C1CC1)n1cc(-c2nccc(Nc3cc(N[C@@H]4CCC[C@H](O)C4)c(C#Cc4cnn(CCF)c4)cn3)n2)cn1` [Example 46, (1S,3R)-3-((2-((2-(1-(Cyclopropylsulfonyl)-1H-pyrazol-4-yl)pyrimidin-4-yl)amino)-5-((1-(2-fluoroethyl)-1H-pyrazol-4-yl)ethynyl)pyridin-4-yl)amino)cyclohexan-1-ol]: the IC50 on EGFR L858R/C797S (setting [6]) is 59.3 nM; against EGFR wildtype (WT) (IC50 WT (nM), 100 μM ATP), greater than 10000 nM; against EGFR Del19/T790M/C797S (setting [7]), 1.3 nM; against EGFR Del19/C797S (setting [8]), 8.6 nM; against EGFR L858R/T790M/C797S (setting [9]), 2.9 nM.
